Where a name gives a salt, the structure may show the parent alone.
Key:
[1] = Comparison of unmilled coarse DMF versus wet-milled DMF for enteric coating in fluid bed; type: physicochemical; conditions: for Coated crystals: enterically coated particles made from the named API
Method: The enteric coated DMF is prepared using a Glatt GPCG-2 fluid bed granulator with a 6′ Wurster column. Dissolution was run with USP apparatus II by the Pharmaceutical Analytical Development Department with the following method.
DMF first de-lumped with a Frewitt Comill with screen size 1.0 mm. Then, it is mixed with silicon dioxide (Aerosil) and being fluidize in the fluid bed granulator for 5 minutes.
Eudragit L100 and triethyl citrate is used for coating an enteric layer for stomach acid protection on the DMF API particles. Samples were taken at different L100 weight gain to compare gastric protection capability.
Unmilled coarse DMF were coated according to the method of described in Example 5. Various properties of the unmilled coarse DMF and enterically coated DMF are compared with wet-milled DMF and enterically coated DMF made from wet-milled DMF.

[2] = Mean particle size of coarse DMF from current synthesis (method not given); type: physicochemical; conditions: DMF isolated from current chemical synthesis, before size reduction

Coated crystals [1]: Significant agglomeration
Flow of API particle in fluid bed ([1]; fluid bed coating process): Uneven flow due to API plate
Particle morphology ([1]; uncoated API particles): 2D plate structure
typical mean particle size [2]: 500-600 microns
SMILES: COC(=O)/C=C/C(=O)OC [Unmilled coarse API, dimethyl fumarate]
Coated crystals ([1]; listed as unmilled coarse DMF particles): Significant agglomeration of the coated particles

Source: patent US11291642B2, “Dimethyl fumarate particles and pharmaceutical compositions thereof” (BIOGEN MA INC., priority 2015, dated 2022)
